Laboratory results reported in patent US11999727B2 (Tango Therapeutics, Inc., priority 2020, dated 2024).
Like-named read-outs stand apart in the source and are kept apart here.

Experiments:
[1] = tested on: HAP1 MTAP-deleted cell line; experiment: SDMA in-cell western assay, HAP1 MTAP-deleted; assay type: cell-based; conditions: for IC50: Homo sapiens; for MTAP intact/deleted ratio: IC50 ratio HAP1 MTAP-intact / HAP1 MTAP-deleted, SDMA in-cell western
Summary of the method: (§1)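 Isogenic HAP1 pair: the MTAP-intact line expresses endogenous MTAP, and the deleted line is MTAP-null. Symmetric dimethylarginine was detected by in-cell western and IC50 values derived for each line.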

PRMT5 [2] = target: T1, PRMT5 (Homo sapiens, UniProt O14744); experiment: PRMT5 biochemical IC50 assay with MTA as cofactor; conditions: PRMT5, MTA as cofactor; read-out: MTA IC50
T1 construct: purchased Viva (custom protein)

PRMT5 [3] = target: T1, PRMT5; experiment: PRMT5 biochemical IC50 assay with no cofactor; conditions: PRMT5, no cofactor; read-out: No Cofactor/rel IC50
Description: Table 1 indicates IC50 values (μM) against PRMT5 for exemplary compounds in the presence of SAM as cofactor, with no cofactor, and with MTA as cofactor, respectively (columns 4-6). […] Ki values can be calculated from the IC50 values as described in the Examples section. As detailed in the Examples section, for the assay performed in the presence of SAM, IC50=Ki×1.5 (Ki=IC50/1.5).

[4] = tested on: HAP1 MTAP-intact cell line; experiment: SDMA in-cell western assay, HAP1 MTAP-intact; assay type: cell-based; conditions: Homo sapiens
Summary of the method: as §1

[5] = tested on: HAP1 MTAP-deleted cell line; experiment: Viability assay, MTAP-deleted cell line; assay type: cell-based; conditions: Homo sapiens
Description: Table 1 additionally indicates IC50 values in a viability assay for the MTAP-deleted cell line (column 10), indicating the effect of treatment with compound on cell survival.

PRMT5 [6] = target: T1, PRMT5; experiment: PRMT5 biochemical IC50 assay with SAM as cofactor; conditions: PRMT5, SAM as cofactor; read-out: SAM IC50
[7] = HAP1, SDMA in-cell western, HAP1 MTAP-deleted, read-out: HAP 1 MTAP deleted IC50
[8] = HAP1, SDMA in-cell western, HAP1 MTAP-intact, read-out: MTAP HAP1 intact IC50
[9] = HAP1, viability IC50, MTAP-deleted cell line, read-out: HAP1 MTAP deleted viability
[10] = HAP1, read-out: HAP1 MTAP deleted IC50
[11] = HAP1, read-out: MTAP HAP1 intact IC50
[12] = HAP1, read-out: HAP1 MTAP deleted viability

T1 sequence (O14744 whole entry): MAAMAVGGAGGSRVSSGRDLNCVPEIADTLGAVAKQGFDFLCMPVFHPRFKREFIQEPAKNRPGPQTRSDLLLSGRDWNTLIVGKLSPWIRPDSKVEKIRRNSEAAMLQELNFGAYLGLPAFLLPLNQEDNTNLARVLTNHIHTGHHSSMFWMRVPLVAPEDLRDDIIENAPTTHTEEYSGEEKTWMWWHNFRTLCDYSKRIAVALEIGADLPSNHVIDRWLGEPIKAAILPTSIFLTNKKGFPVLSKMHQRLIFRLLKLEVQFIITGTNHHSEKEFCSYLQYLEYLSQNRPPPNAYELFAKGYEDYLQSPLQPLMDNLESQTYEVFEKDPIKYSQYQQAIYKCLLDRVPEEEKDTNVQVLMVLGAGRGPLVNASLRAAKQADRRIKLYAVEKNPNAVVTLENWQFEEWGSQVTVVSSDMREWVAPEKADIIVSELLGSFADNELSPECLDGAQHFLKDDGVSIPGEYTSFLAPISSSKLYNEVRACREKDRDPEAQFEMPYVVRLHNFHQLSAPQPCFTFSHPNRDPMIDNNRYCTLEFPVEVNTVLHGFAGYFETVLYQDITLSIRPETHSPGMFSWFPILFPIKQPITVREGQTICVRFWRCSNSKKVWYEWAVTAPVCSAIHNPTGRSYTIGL
T1 sequence (Q9BQA1 whole entry partner): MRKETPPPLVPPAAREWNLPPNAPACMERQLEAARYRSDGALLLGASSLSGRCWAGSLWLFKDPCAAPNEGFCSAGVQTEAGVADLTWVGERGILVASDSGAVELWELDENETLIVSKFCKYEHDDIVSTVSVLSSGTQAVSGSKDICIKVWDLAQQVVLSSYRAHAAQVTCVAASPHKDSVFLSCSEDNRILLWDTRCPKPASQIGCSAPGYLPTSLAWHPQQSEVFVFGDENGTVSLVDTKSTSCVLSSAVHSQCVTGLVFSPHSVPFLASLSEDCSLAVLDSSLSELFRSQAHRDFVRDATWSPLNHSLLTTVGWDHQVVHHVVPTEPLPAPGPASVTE

Structure (SMILES) | IC50 [1, 7] | IC50 (PRMT5 [2]) | IC50 (PRMT5 [3]) | IC50 [4, 8] | IC50 (PRMT5 [6]) | MTAP intact/deleted ratio [1] | IC50 [5, 9] | IC50 [1, 10] | IC50 [4, 11] | IC50 [5, 12]
Cc1cc(NC(=O)C(=O)N2C[C@H](C)CC[C@H]2c2ccncc2)cnc1N (single isomer, unassigned) [Compound 592] | < 100 nM | 50 to 500 nM | < 50 nM | 100 to 1000 nM | 50 to 500 nM | A (an IC50 ratio greater than or equal to 10 fold) | 1000 to 10000 nM | – | – | –
Cc1cc([C@H]2CC[C@H](C)CN2C(=O)C(=O)Nc2cnc(N)c(C)c2)ccn1 (single isomer, unassigned) [Compound 593] | > 1000 nM | > 500 nM | > 500 nM | > 1000 nM | > 500 nM | B (an IC50 ratio greater than or equal to 3 fold but lower than 10 fold) | > 10000 nM | – | – | –
Cc1cc(NC(=O)C(=O)N2C[C@H](C)CC[C@H]2c2ccc(F)c(Cl)c2)cnc1N (single isomer, unassigned) [Compound 596] | < 100 nM | < 50 nM | < 50 nM | 100 to 1000 nM | 50 to 500 nM | A (an IC50 ratio greater than or equal to 10 fold) | < 1000 nM | – | – | –
CC(=O)Oc1ccc([C@H]2CC[C@H](C)CN2C(=O)C(=O)Nc2cnc(N)c(C)c2)cc1 (single isomer, unassigned) [Compound 597] | > 1000 nM | > 500 nM | > 500 nM | > 1000 nM | > 500 nM | B (an IC50 ratio greater than or equal to 3 fold but lower than 10 fold) | > 10000 nM | – | – | –
C[C@H]1CC[C@H](c2ccc3c(c2)OCCN3)N(C(=O)C(=O)Nc2cncc(C(N)=O)c2)C1 (single isomer, unassigned) [Compound 598] | < 100 nM | < 50 nM | 50 to 500 nM | > 1000 nM | < 50 nM | A (an IC50 ratio greater than or equal to 10 fold) | < 1000 nM | – | – | –
CC(=O)Oc1ccc([C@@H]2CC[C@@H](C)CN2C(=O)C(=O)Nc2cncc(C(N)=O)c2)cc1 (single isomer, unassigned) [Compound 599, 4-(1-(2-((5-carbamoylpyridin-3-yl)amino)-2-oxoacetyl)-5-methylpiperidin-2-yl)phenyl acetate] | > 1000 nM | > 500 nM | > 500 nM | > 1000 nM | > 500 nM | B (an IC50 ratio greater than or equal to 3 fold but lower than 10 fold) | > 10000 nM | – | – | –
COc1ncc(NC(=O)C(=O)N2C[C@@H](C)CC[C@@H]2c2ccc3scnc3c2)cc1C(N)=O (single isomer, unassigned) [Compound 602] | – | < 50 nM | < 50 nM | – | < 50 nM | A (an IC50 ratio greater than or equal to 10 fold) | – | < 100 nM | 100 to 1000 nM | < 1000 nM
COc1ncc(NC(=O)C(=O)N2C[C@H](C)CC[C@H]2c2ccc3scnc3c2)cc1C(N)=O (single isomer, unassigned) [Compound 603] | – | > 500 nM | > 500 nM | – | > 500 nM | C (an IC50 ratio of less than 3 fold) | – | > 1000 nM | > 1000 nM | > 10000 nM
CC(=O)Oc1ccc([C@H]2CC[C@H](C)CN2C(=O)C(=O)Nc2cncc(C(N)=O)c2)cc1 (single isomer, unassigned) [Compound 604, 4-(1-(2-((5-carbamoylpyridin-3-yl)amino)-2-oxoacetyl)-5-methylpiperidin-2-yl)phenyl acetate] | < 100 nM | 50 to 500 nM | 50 to 500 nM | 100 to 1000 nM | < 50 nM | A (an IC50 ratio greater than or equal to 10 fold) | < 1000 nM | – | – | –
Cc1cc(NC(=O)C(=O)N2C[C@@H](C)CC[C@@H]2c2ccc(F)c(Cl)c2)cnc1N (single isomer, unassigned) [Compound 606] | > 1000 nM | > 500 nM | > 500 nM | > 1000 nM | > 500 nM | B (an IC50 ratio greater than or equal to 3 fold but lower than 10 fold) | > 10000 nM | – | – | –
C[C@@H]1CC[C@@H](c2ccc(N)cn2)N(C(=O)C(=O)Nc2cncc(C(N)=O)c2)C1 (single isomer, unassigned) [Compound 607] | > 1000 nM | 50 to 500 nM | > 500 nM | > 1000 nM | 50 to 500 nM | B (an IC50 ratio greater than or equal to 3 fold but lower than 10 fold) | > 10000 nM | – | – | –
Cc1cc([C@@H]2CC[C@@H](C)CN2C(=O)C(=O)Nc2cnc(N)c(C)c2)ccn1 (single isomer, unassigned) [Compound 608] | < 100 nM | < 50 nM | < 50 nM | 100 to 1000 nM | < 50 nM | A (an IC50 ratio greater than or equal to 10 fold) | < 1000 nM | – | – | –

Further lines, with some results ahead:

IC50 [1, 7] | IC50 (PRMT5 [2]) | IC50 (PRMT5 [3]) | IC50 [4, 8] | IC50 (PRMT5 [6]) | Structure (SMILES) | MTAP intact/deleted ratio [1] | IC50 [5, 9] | IC50 [1, 10] | IC50 [4, 11] | IC50 [5, 12]
< 100 nM | < 50 nM | 50 to 500 nM | > 1000 nM | 50 to 500 nM | C[C@@H]1CC[C@@H](c2ccc3[nH]ncc3c2F)N(C(=O)C(=O)Nc2cncc(C(N)=O)c2)C1 (single isomer, unassigned) [Compound 612] | A (an IC50 ratio greater than or equal to 10 fold) | 1000 to 10000 nM | – | – | –
< 100 nM | < 50 nM | 50 to 500 nM | > 1000 nM | 50 to 500 nM | C[C@H]1CC[C@H](c2cc(F)cc(Cl)c2)N(C(=O)C(=O)Nc2cncc(C(N)=O)c2)C1 (single isomer, unassigned) [Compound 615] | A (an IC50 ratio greater than or equal to 10 fold) | 1000 to 10000 nM | – | – | –
100 to 1000 nM | > 500 nM | > 500 nM | > 1000 nM | > 500 nM | Cc1cc(NC(=O)C(=O)N2C[C@H](C)CC[C@H]2c2ccc3sccc3c2)cnc1N (single isomer, unassigned) [Compound 617] | A (an IC50 ratio greater than or equal to 10 fold) | > 10000 nM | – | – | –
< 100 nM | < 50 nM | < 50 nM | > 1000 nM | < 50 nM | COc1ncc(NC(=O)C(=O)N2C[C@@H](C)CC[C@@H]2c2ccc3sccc3c2)cc1C(N)=O (single isomer, unassigned) [Compound 618] | A (an IC50 ratio greater than or equal to 10 fold) | < 1000 nM | – | – | –
100 to 1000 nM | > 500 nM | > 500 nM | > 1000 nM | > 500 nM | Cc1cc(NC(=O)C(=O)N2C[C@@H](C)CC[C@@H]2c2ccc3c(c2)CCC(=O)N3)cnc1C (single isomer, unassigned) [Compound 619] | A (an IC50 ratio greater than or equal to 10 fold) | 1000 to 10000 nM | – | – | –
< 100 nM | < 50 nM | < 50 nM | 100 to 1000 nM | 50 to 500 nM | Cc1cc(NC(=O)C(=O)N2C[C@@H](C)CC[C@@H]2c2ccc3[nH]ncc3c2)cnc1C (single isomer, unassigned) [Compound 620] | A (an IC50 ratio greater than or equal to 10 fold) | < 1000 nM | – | – | –
< 100 nM | < 50 nM | < 50 nM | 100 to 1000 nM | 50 to 500 nM | Cc1cc(NC(=O)C(=O)N2C[C@@H](C)CC[C@@H]2c2ccc(NS(C)(=O)=O)cc2)cnc1C (single isomer, unassigned) [Compound 621] | A (an IC50 ratio greater than or equal to 10 fold) | 1000 to 10000 nM | – | – | –
> 1000 nM | > 500 nM | > 500 nM | > 1000 nM | > 500 nM | C[C@H]1CC[C@@H](c2cc(F)cc(Cl)c2)N(C(=O)C(=O)Nc2cncc(C(N)=O)c2)C1 (single isomer, unassigned) [Compound 624] | B (an IC50 ratio greater than or equal to 3 fold but lower than 10 fold) | > 10000 nM | – | – | –
100 to 1000 nM | 50 to 500 nM | > 500 nM | > 1000 nM | 50 to 500 nM | C[C@@H]1CC[C@H](c2cc(F)cc(Cl)c2)N(C(=O)C(=O)Nc2cncc(C(N)=O)c2)C1 (single isomer, unassigned) [Compound 625] | A (an IC50 ratio greater than or equal to 10 fold) | > 10000 nM | – | – | –
< 100 nM | 50 to 500 nM | 50 to 500 nM | > 1000 nM | 50 to 500 nM | C[C@H]1CC[C@H](c2ccc(-c3cc[nH]n3)cc2)N(C(=O)C(=O)Nc2cncc(C(N)=O)c2)C1 (single isomer, unassigned) [Compound 626] | A (an IC50 ratio greater than or equal to 10 fold) | 1000 to 10000 nM | – | – | –
